Read-outs that look alike come from different tables or passages of the source.
Key:
[1] = tested on: burn, excisional and surgical incisional wounds; assay: Wound healing time in rat wound models (burn, excisional, incisional; normal and diabetic); assay type: in vivo; conditions: exogenous gas treatment
Method: (§1) Provided methods and apparatus were tested on second degree burn wounds (normal and diabetic), excisional wounds (normal and diabetic), and surgical incisional wounds (normal and diabetic) in rat models. Various treatment protocols were evaluated and dose and time dependent studies were carried out on normal excisional wounds to determine the [NO] and [ONOO^−] release profile using exogenous NO and CO.
It is believed that gasotransmitters NO, O2 and CO delivered locally to a wound site may influence the healing process via changing the NO/ONOO^− balance. […] As a result, there was a high formation of cytotoxic ONOO^−, which can contribute to wound healing impairment. Accordingly, wounds were exposed individually to either gaseous NO or CO using a modified gas delivery system surrounding an injured area. To determine the efficacy of gas therapy in restoring the NO/ONOO^− balance, treated wounds were subjected to NO and ONOO^− measurements. Also, eNOS and iNOS expression levels were determined using western blotting. Collagen formation and maturation, also wound contraction were investigated and compared to results of untreated wounds.

rat model of wound = assay type: in vivo
Method: In vivo efficiency of the provided gas delivery system in the process of accelerating wound healing was also tested. For these experiments, a rat model of wound was studied. Indexes of post-ischemic injury included: morphometric analysis, tissue edema, using a laser rate of wound healing process, level of collagen, and breaking strength.

[2] = inhaled for over 30 min; cited from earlier work
[3] = tested on: diabetic type I excisional wounds; assay: Type I diabetes model: excisional wound contraction after gas treatment; assay type: in vivo, rat; conditions: for effect on diabetic wound contraction / wound area as % of its initial area / wound size as % of its starting point: 1000 ppm NO or 250 ppm CO, 15 minutes four times per day
Method: Male Sprague-Dawley rats (body weight 400-450 g) were used for these studies, were kept in an animal care facility for 48 h at 21° C. in a temperature controlled room with a 12 h light/dark cycle and 30-70% air-changed humidity. Animals were allowed unlimited access to regular chow food and drinking water. Diabetes type I was induced in rats by injection of streptozotocin (STZ) (65 mg/kg in pH 4.5 citrate buffer, IP). To relieve the pain associated with the intraperitoneal streptozotocin injection, rats were first put under deep anesthesia by injecting (ketamine 50 mg/kg IM, xylazine 5 mg/kg, IM). Anesthesia levels were checked by corneal reflex and toe pinch, and sustained by additional injections of the ketamine and xylazine mixture. After 10 days of streptozotocin injections the blood glucose levels were measured to determine if the rats could be considered diabetic. If the blood glucose level was above 300 mg/dL, the rat was considered diabetic. Rats were fasted overnight before the glucose level was measured. After injecting anesthesia, the tip of the tail was sterilized by wiping it with 70% alcohol. Approximately 2 mm of the tail was cut off to withdraw a sample of blood (35 μl), and the tip was compressed for 45-60 seconds to stop the bleeding.
The diabetic rats were then anesthetized (if needed) with a mixture of ketamine (50 mg/kg I.M.) and xylazine (5 mg/kg I.M.) administered intraperitoneally. Once anesthetized, hair was removed from the rats' backs using an electric razor and the backs of the rat were subsequently wiped with a 70% ethyl alcohol swab. On either side of the midline of the rat's back, four excision wounds were made with a sterile about 5 mm in diameter Biopsy Punch (Miltex, Inc. York, Pa. cat#33-35). The resulting wounds were approximately 4 mm deep and were deprived of epidermis, dermis and subcutaneous fat. Immediately after wounding, the gasket of an exemplary gas delivery system as disclosed herein was bonded to the skin area surrounding each treated wound by means of a thin layer of Skin-Bond® Cement (Smith & Nephew Inc. Largo, Fla. 33773).
After the surgery and during the recovery period from anesthesia, rats were turned from side to side to avoid pulmonary edema and to ensure unobstructed breathing. The rats were transferred to cages lined with sterile drape and contained moist food. To minimize any stress associated with pain, the rats were injected subcutaneously with analgesic (Butorphanol 1-2 mg/kg) every four hours for a maximum period of 2 days. Additionally, 1-2 ml of warm sterile saline/100 g of body weight was injected subcutaneously during the recovery period to prevent dehydration. Once the rats were completely awake, they were placed in cages with free access to food and drinking water. During the postoperative care period, rats were monitored for signs of infection, or self inflicted trauma. Additionally food and water intake was monitored. The diabetic rats were subjected to treatment as described below.
All gas mixtures were prepared and stored in HandyGrab Tedlar gas sampling bag with capacity of 0.6 liter (Zefon International, St. Petersburg, Fla., cat#HG-PP-06) prior to each treatment. Static mixing with nitrogen as a diluting gas was performed. To prepare nitric oxide mixtures in nitrogen, a sample of 1000 ppm nitric oxide in nitrogen (Airgas Specialty Gases, Chicago, Ill.) was drawn with a 50 cubic centimeters (cc) disposable medical syringe and then transferred to a Tedlar bag through an injection port. Then the appropriate volume of nitrogen (Airgas Inc., Radur, Pa.) was delivered to the bag that was controlled by a Riteflow® flowmeter (Bel-Art Products, Pequannock, N.J.). The same technique was used to prepare carbon monoxide mixtures in nitrogen, but a 1 cc disposable medical syringe was used to dosage pure carbon monoxide (Air Products and Chemicals Inc., Parkersburg, W. Va.). […]

2nd degree burn wounds = assay: Burn wound model: change in burn wound area after gas treatment; assay type: in vivo, rat; conditions: 1000 ppm NO or 250 ppm CO, 15 minutes four times per day; for effect on burn healing compared to untreated burn wound: 10 days
Method: Similar to the rats used for the type I diabetic model, Rats were anesthetized with the mixture of ketamine 50 mg/kg IM and xylazine 5 mg/kg IM administered intraperitoneally. Anesthesia levels were maintained by additional injections of this mixture as needed. Each rat was allowed to breathe spontaneously. Hair was removed from the rats' backs and the backs of the rat were subsequently wiped with 70% ethanol. The standard rat burn model was used in which burns are produced by hot metal used as a heat source. A customized soldering iron was used to cause superficial dermal second-degree burns on. the backs of the rats. […] It was heated to 80° C. and applied to the skin for 10 seconds, which caused second degree burns. Immediately after wounding, the gasket of an exemplary gas delivery system as disclosed herein was bonded to the skin area surrounding each treated wound by means of a thin layer of Skin-Bond® Cement (Smith & Nephew Inc. Largo, Fla. 33773). The animals were then transferred to individual cages for recovery. Rats received an analgesic (Butorphanol 1-2 mg/kg) injected subcutaneously every four hours for a maximum period of 2 days. To prevent dehydration, 1-2 ml of warm sterile saline/100 g of body weight was injected subcutaneously during the recovery period. The treatment procedures described in more detail below were executed in the same way for the burn wound model as the diabetic wound model. After a certain time period, the rats were again anesthetized using the procedure described above and the wounded skin was taken from the backs of these rats for analysis. Then rats were then euthanized with pentothal (150 mg/kg) injected intraperitoneally.
(§2) All gas mixtures were prepared and stored in HandyGrab Tedlar gas sampling bag with capacity of 0.6 liter (Zefon International, St. Petersburg, Fla., cat#HG-PP-06) prior to each treatment. Static mixing with nitrogen as a diluting gas was performed. To prepare nitric oxide mixtures in nitrogen, a sample of 1000 ppm nitric oxide in nitrogen (Airgas Specialty Gases, Chicago, Ill.) was drawn with a 50 cubic centimeters (cc) disposable medical syringe and then transferred to a Tedlar bag through an injection port. Then the appropriate volume of nitrogen (Airgas Inc., Radur, Pa.) was delivered to the bag that was controlled by a Riteflow® flowmeter (Bel-Art Products, Pequannock, N.J.). The same technique was used to prepare carbon monoxide mixtures in nitrogen, but a 1 cc disposable medical syringe was used to dosage pure carbon monoxide (Air Products and Chemicals Inc., Parkersburg, W. Va.). To calculate the concentrations of mixed gases, the following Equation 2 was applied: Cppm=Vc/(Vc+Vd)×10^6·ppm (2) where Vc is the target gas volume and Vd is the dilutant volume.
Once the rats were prepared with a modified gas delivery system in place, 20 cm^3 of nitrogen was purged through whole gas capsule to remove air. Then 20 cm^3 of a therapeutic gas mixture was delivered in a medical syringe to a gas vent, and the gas vent was sealed. The wounds were exposed to gas mixtures for specified period of times (15 minutes to 1 hour). The treatment was repeated four times a day, while the rat was awake and fully ambulatory. Negative control wounds remained uncovered, allowing access of air to the wound site. Positive control wounds were exposed to pure nitrogen, which served as the diluting gas for every mixture prepared. […]

normal excisional wounds = assay: Normal excisional wound: wound size after gas treatment; assay type: in vivo, rat; conditions: 1000 ppm NO or 250 ppm CO, 15 minutes four times per day; for wound area shrunk to % of initial: day 3; for wound size/area as % of its starting point: day 10
Method: as §1, §2
Once the rats were prepared with a modified gas delivery system in place, 20 cm^3 of nitrogen was purged through whole gas capsule to remove air. Then 20 cm^3 of a therapeutic gas mixture was delivered in a medical syringe to a gas vent, and the gas vent was sealed. The wounds were exposed to gas mixtures for specified period of times (15 minutes to 1 hour). The treatment was repeated four times a day, while the rat was awake and fully ambulatory. Negative control wounds remained uncovered, allowing access of air to the wound site. Positive control wounds were exposed to pure nitrogen, which served as the diluting gas for every mixture prepared.
After a specified time interval (1 day, 3 days, 5 days, 7 days, 10 days), rats were again anesthetized with a mixture of ketamine (50 mg/kg I.M.) and xylazine (5 mg/kg I.M.). The gas delivery system was removed by applying few drops of Uni-Solve® (Smith & Nephew Inc. Largo, Fla. 33773), which enabled the removal of the gas delivery system from the skin. Wounds were then removed using a 6 mm in diameter biopsy punch (Miltex, Inc. York, Pa. cat #33-36). Removed wounds were immediately used to measure the NO and ONOO^− release or frozen in liquid nitrogen to be later subjected to hydroxyproline analysis and western blot analysis or embedded in TBS Tissue Frizzing Medium for histological analysis. After the wounded tissue was removed, the rats were euthanized by injecting pentothal at a dose of 150 mg/kg. The rats were then placed in cold storage in an animal care facility.
In FIG. 9, depicted are changes in wound size of a normal excisional wound after treatment with either NO or CO. The photographs were taken at 1, 3, 5, 7 and 10 days after wounding. Normal excisional wounds were treated with either 1000 ppm NO or 250 ppm of CO gas mixtures for 15 minutes four times per day with at least an hour break between treatments. A marker 305 was placed next to each excisional wound to show the size/area of the original wound. […] A very rapid drop in wound area was observed between the 5th and 7th day of healing. […] At day 10, the wound area/size had decreased to 31%+/−5% of its initial starting point. […] At day 3, the area of the NO treated wound had shrunk to 58±4.9%, and the area of gCO treated wound had shrunk to 63±5.7%, whereas the area of untreated wound decreased to 81±6.1%. By day 10 NO treated wounds were much smaller than the untreated wounds and had decreased in size/area to 15%+/−3.8% of its starting point.

[4] = about 50-1000 ppm NO, about 50-250 ppm CO, about 100% O2

| SMILES | decreased wound healing time (versus control, untreated) [1] | wound healing in a single gas treatment (rat model of wound; [4]) | concentration believed to be dangerous when inhaled [2] | effect on diabetic wound contraction [3] | wound area as % of its initial area ([3]; day 7) [%] | size difference between treated and untreated diabetic excisional wounds ([3]; day 10) [%] | wound size as % of its starting point ([3]; day 10) | effect on burn healing compared to untreated burn wound (2nd degree burn wounds) | increase of burn wound area (2nd degree burn wounds; day 3) [%] | increase of burn wound area (2nd degree burn wounds; day 10) | effect on normal excisional wound contraction (normal excisional wounds) | wound area shrunk to % of initial (normal excisional wounds) [%] | wound size/area as % of its starting point (normal excisional wounds) | wound healing in a single gas treatment (rat model of wound; rat, in vivo) | wound area as % of its initial area ([3]; day 5) [%] |
| --- | --- | --- | --- | --- | --- | --- | --- | --- | --- | --- | --- | --- | --- | --- | --- |
| [N]=O [NO, nitric oxide] | 30-50% | good results | > 500 ppm | accelerated wound contraction and stimulated wound repair | 57.8±3.1 | ~17 | 29.8%+/−2.5 | reduced swelling and accelerated burn healing process | 76.3±4.2 | roughly 58.0%+/−3.1 | accelerated wound contraction and resulted in a significant decrease in wound size | 58±4.9 | 15%+/−3.8 | – | – |
| O=O [O2, Oxygen] | – | – | – | – | – | – | – | – | – | – | – | – | – | good results | – |
| [C-]#[O+] [CO, carbon monoxide] | at least 20% | good results | higher than 1500 ppm | some influence on wound contraction | – | – | 41.4%+/−2.8 | reduced swelling and accelerated burn healing process | – | roughly 67.1%+/−3.5 | accelerated wound contraction and resulted in a significant decrease in wound size | 63±5.7 | 22.2%+/−3.3 | – | 82.6±3.7 |

Source: patent US9511196B2, “Systems and methods for promoting wound healing” (priority 2009, dated 2016)
